≈ marks a conversion by molar mass, not a printed value. Where “and” joins values, the source holds several entries; their conditions need not be identical. Equal values may be shown once. Read-outs that look alike come from different tables or passages of the source.

In one data set the target is PvPI4K (Plasmodium vivax, UniProt A5KB26). The experiment in a line: biochemical. The settings on record: purified recombinant PvPI4K, 10 μM ATP, ADP-Glo; mean of N ≥ 2; read-out: PvPI4K IC50 ± SD. For orientation: In ADP-Glo the light output rises with the ADP produced.
Sequence of PvPI4K (A5KB26 entry or part of it): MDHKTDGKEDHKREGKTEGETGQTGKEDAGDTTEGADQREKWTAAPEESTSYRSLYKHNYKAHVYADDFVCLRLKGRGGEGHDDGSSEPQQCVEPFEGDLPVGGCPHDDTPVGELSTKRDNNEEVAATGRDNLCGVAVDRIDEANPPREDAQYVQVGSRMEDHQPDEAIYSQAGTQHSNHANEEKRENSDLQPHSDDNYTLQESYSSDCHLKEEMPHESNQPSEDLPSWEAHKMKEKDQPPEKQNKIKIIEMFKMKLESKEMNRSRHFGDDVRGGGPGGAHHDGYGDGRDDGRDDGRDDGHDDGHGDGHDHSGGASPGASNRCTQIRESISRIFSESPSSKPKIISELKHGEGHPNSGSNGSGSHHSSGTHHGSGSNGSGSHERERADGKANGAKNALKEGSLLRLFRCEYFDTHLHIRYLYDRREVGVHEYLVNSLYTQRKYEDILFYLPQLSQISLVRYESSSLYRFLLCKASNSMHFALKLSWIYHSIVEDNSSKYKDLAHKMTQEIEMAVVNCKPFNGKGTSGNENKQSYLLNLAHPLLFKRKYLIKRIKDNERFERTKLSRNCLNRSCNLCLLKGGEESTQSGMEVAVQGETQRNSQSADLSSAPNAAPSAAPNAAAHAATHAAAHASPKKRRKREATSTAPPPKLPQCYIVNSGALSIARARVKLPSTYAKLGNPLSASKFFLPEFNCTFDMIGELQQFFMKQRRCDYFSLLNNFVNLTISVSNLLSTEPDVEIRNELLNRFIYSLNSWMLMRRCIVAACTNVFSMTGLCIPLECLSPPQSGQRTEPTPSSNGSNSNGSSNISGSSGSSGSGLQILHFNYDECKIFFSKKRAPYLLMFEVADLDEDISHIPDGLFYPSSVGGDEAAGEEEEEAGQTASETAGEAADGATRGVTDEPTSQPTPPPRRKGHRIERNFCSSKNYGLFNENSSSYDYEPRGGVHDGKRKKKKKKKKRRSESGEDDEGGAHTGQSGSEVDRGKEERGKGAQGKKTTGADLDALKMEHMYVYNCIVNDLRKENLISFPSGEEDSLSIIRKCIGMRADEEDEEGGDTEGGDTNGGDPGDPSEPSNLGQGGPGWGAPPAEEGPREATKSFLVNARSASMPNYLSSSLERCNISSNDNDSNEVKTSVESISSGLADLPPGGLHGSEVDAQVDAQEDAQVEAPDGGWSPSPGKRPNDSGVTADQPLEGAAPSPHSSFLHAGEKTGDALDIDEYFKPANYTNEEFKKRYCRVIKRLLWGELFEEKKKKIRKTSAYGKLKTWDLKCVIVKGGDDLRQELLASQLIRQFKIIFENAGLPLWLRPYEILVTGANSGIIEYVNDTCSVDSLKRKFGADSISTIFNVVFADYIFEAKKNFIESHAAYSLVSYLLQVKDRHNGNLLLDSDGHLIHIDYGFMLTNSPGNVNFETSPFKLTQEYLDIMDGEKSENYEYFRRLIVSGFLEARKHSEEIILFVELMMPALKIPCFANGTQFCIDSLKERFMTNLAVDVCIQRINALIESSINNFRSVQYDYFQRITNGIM
Data set [1] concerns Chinese Hamster Ovary (CHO) cell line. The experiment in a line: cells. Format: cell-based. The settings on record: MTT assay over 48h, read-out: CHO IC50. A general note: Formazan colour is commonly taken as a measure of viable cells.
In data set [2] the test system is P. falciparum NF54 strain. The experiment in a line: Antiplasmodial activity, parasite lactate dehydrogenase assay, NF54. Format: cell-based, Plasmodium falciparum. The settings on record: parasite lactate dehydrogenase assay over 72 h, read-out: Pf IC50 ± SD NF54.
The nature of data set [3]: Solubility, miniaturized shake flask method. The settings on record: aqueous solution.
The test system of data set [4] is multidrug-resistant strain, K1. The experiment in a line: Antiplasmodial activity, parasite lactate dehydrogenase assay, K1. The settings on record: parasite lactate dehydrogenase assay over 72 h, read-out: Pf IC50 ± SD K1. The data set is classed as cell-based, Plasmodium falciparum.
Another data set concerns β-hematin (βH) formation. The experiment in a line: NP-40 mediated cell-free β-hematin assay. The settings on record: read-out: β-hematin IC50.
The test system of data set [5] is P. falciparum PI4K conditional knockdown line. As to the kind of experiment: microbe, parasite or virus in culture. The data set is classed as cell-based, Plasmodium falciparum.
Where [6] appears, read: Plasmodium falciparum, NF54, 72 h.
[7] abbreviates: Plasmodium falciparum, K1, 72 h.
Where [8] appears, read: cell-free NP-40 detergent-mediated assay, n = 2.

Consider `CS(=O)(=O)c1cccc(-c2ccc3nccc(N4CC[C@@H](N)C4)c3n2)c1` [Compound 9, (3R)-1-[6-(3-Methylsulfonylphenyl)-1,5-naphthyridin-4-yl]pyrrolidin-3-amine], for which the IC50 (as a rule, the concentration that inhibits the measured activity by half) on PvPI4K turned out to be 0.199 ± 0.037 µM; in data set [1] (Cricetulus griseus, CHO) it was 22 µM; in data set [2] (setting [6]), 0.1 ± 0.005 µM. In addition, in data set [3], the concentration in solution (solubility at 20 h) was 200 µM (≈ 73.7 µg/mL).
As for `OCCN1CCC(Nc2ccnc3ccc(-c4ccc(C(F)(F)F)nc4)nc23)CC1` [Compound 22, 2-[4-[[6-[6-(Trifluoromethyl)pyridin-3-yl]-1,5-naphthyridin-4-yl]amino]piperidin-1-yl]ethanol], the figures for the 50% inhibitory concentration (IC50) (at PvPI4K; in data set [4] (setting [7]); in data set [2] (setting [6])) were 0.303 ± 0.074 µM, 0.385 ± 0.041 µM and 0.253 ± 0.002 µM, respectively. Moreover, in data set [3], the solubility (as a rule, how much of the substance goes into solution per volume) at 20 h was determined as 145 µM (≈ 60.5 µg/mL).
In the case of `CN1CCC(Nc2cc(=O)[nH]c3ccc(-c4ccc(C(F)(F)F)nc4)nc23)CC1` [Compound 37, 4-[(1-Methylpiperidin-4-yl)amino]-6-[6-(trifluoromethyl)pyridin-3-yl]-1H-1,5-naphthyridin-2-one], the IC50 at PvPI4K was above 10 µM; in data set [2] (setting [6]), 4.2 ± 1 µM. In data set [3], this compound returned a solubility at 20 h of 45 µM (≈ 18.2 µg/mL).
Turning to `FC(F)(F)c1ccc(-c2ccc3nccc(OC4CCNCC4)c3n2)cn1` [Compound 19, 8-Piperidin-4-yloxy-2-[6-(trifluoromethyl)pyridin-3-yl]-1,5-naphthyridine], the half-inhibitory concentration (IC50) on PvPI4K is 0.265 ± 0.16 µM; in data set [2] (setting [6]), 3.85 ± 0.954 µM; in the data set with β-hematin (βH) formation (setting [8]), 94 ± 3 µM.
Consider `CS(=O)(=O)c1cccc(-c2ccc3nccc(N4CC[C@@H](NC(N)=O)C4)c3n2)c1` [Compound 11, [(3R)-1-[6-(3-Methylsulfonylphenyl)-1,5-naphthyridin-4-yl]pyrrolidin-3-yl]urea], for which the IC50 at PvPI4K is 0.039 ± 0.007 µM; in data set [2] (setting [6]), 0.63 ± 0.133 µM.
Turning to “(R)-6-(6-Methoxypyridin-3-yl)-N-(pyrrolidin-3-yl)-1,5-naphthyridin-4-amine [Compound 34]”, the IC50 turned out to be 0.111 ± 0.069 µM at PvPI4K, 0.667 ± 0.06 µM in data set [4], 17 µM in data set [1] and 0.225 ± 0.007 µM in data set [2].
In the case of `CN1CCC(Nc2ccnc3ccc(-c4ccc(OCCCO)nc4)nc23)CC1` [Compound 35, 3-[5-[8-[(1-Methylpiperidin-4-yl)amino]-1,5-naphthyridin-2-yl]pyridin-2-yl]oxypropan-1-ol], the concentration for half-maximal inhibition (IC50) on PvPI4K was 0.019 ± 0.012 µM; in data set [4] (setting [7]) it was 0.462 ± 0.052 µM; in data set [1] (Cricetulus griseus, CHO) it was above 50 µM; in data set [2] (setting [6]) it was 0.203 ± 0.006 µM; in the data set on β-hematin (βH) formation (setting [8]) it was above 200 µM. Besides, the concentration in solution in data set [3] (solubility at 20 h) came to 200 µM (≈ 78.7 µg/mL).
In the case of `Cc1nc(C(F)(F)F)ccc1-c1ccc2nccc(NC3CCN(C)CC3)c2n1` [Compound 31, N-(1-Methylpiperidin-4-yl)-6-[2-methyl-6-(trifluoromethyl)pyridin-3-yl]-1,5-naphthyridin-4-amine], the 50% inhibitory concentration (IC50) at PvPI4K is 0.174 ± 0.102 µM; in data set [4] (setting [7]), 0.367 ± 0.005 µM; in data set [1] (Cricetulus griseus, CHO), above 50 µM; in data set [2] (setting [6]), 0.499 ± 0.024 µM. In data set [3], this compound displayed a solubility at 20 h of 195 µM (≈ 78.3 µg/mL).
Turning to `N[C@@H]1CCN(c2ccnc3ccc(-c4ccc(C(F)(F)F)nc4)nc23)C1` [Compound 13, (3R)-1-[6-[6-(Trifluoromethyl)pyridin-3-yl]-1,5-naphthyridin-4-yl]pyrrolidin-3-amine], the half-maximal inhibitory concentration (IC50) at PvPI4K came to 1.2 ± 0.481 µM; in data set [4] (setting [7]) it was 0.11 ± 0.013 µM; in data set [1] (Cricetulus griseus, CHO) it was 20 µM; in data set [2] (setting [6]) it was 0.06 ± 0.008 µM. The compound further came in with a solubility at 20 h in data set [3] of 135 µM (≈ 48.5 µg/mL).
Consider `CS(=O)(=O)c1cccc(-c2ccc3nccc(NC4CCCNC4)c3n2)c1` (centres unmarked) [Compound 8, 6-(3-Methylsulfonylphenyl)-N-piperidin-3-yl-1,5-naphthyridin-4-amine], for which the half-inhibitory concentration (IC50) is 0.151 ± 0.072 µM at PvPI4K; 33.3 µM in data set [1] (Cricetulus griseus, CHO); 0.2 ± 0.002 µM in data set [2] (setting [6]); above 500 µM with β-hematin (βH) formation (setting [8]). The compound also returned a solubility at 20 h in data set [3] of 195 µM (≈ 74.6 µg/mL).
On the same counts, the results for `FC(F)(F)c1ccc(-c2ccc3nccc(NC4CCCNC4)c3n2)cn1` (centres unmarked) [Compound 12, N-Piperidin-3-yl-6-[6-(trifluoromethyl)pyridin-3-yl]-1,5-naphthyridin-4-amine] are 0.276 ± 0.033 µM, 43 µM, 0.09 ± 0.001 µM, 66 ± 1 µM and 195 µM (≈ 72.8 µg/mL).
Turning to `CN1CCC(Nc2cc(N)nc3ccc(-c4ccc(C(F)(F)F)nc4)nc23)CC1` [Compound 36, 4-N-(1-Methylpiperidin-4-yl)-6-[6-(trifluoromethyl)pyridin-3-yl]-1,5-naphthyridine-2,4-diamine], the IC50 at PvPI4K is 9.4 ± 0.849 µM; in data set [4] (setting [7]) it was 0.192 ± 0.007 µM; in data set [1] (Cricetulus griseus, CHO) it was 26 µM; in data set [2] (setting [6]), 0.04 ± 0.011 µM; in the data set on β-hematin (βH) formation (setting [8]), 35 µM and < 60 µM. This compound also gave a solubility at 20 h in data set [3] of 180 µM (≈ 72.4 µg/mL).
As to `CS(=O)(=O)c1ccc(-c2cnc(N)c(-c3ccc(C(F)(F)F)nc3)c2)cc1` [MMV390048, reference compound], the concentration for half-maximal inhibition (IC50) stood at 0.036 µM in data set [2] (setting [6]); 0.031 µM in data set [5] (Plasmodium falciparum, 72 h, read-out: ABS IC50 for PfPI4K cKD, N=1, +aTc, experiment N=1, +aTc (500 nM, control conditions), 72 hours); 0.004 µM in data set [5] (Plasmodium falciparum, 72 h, read-out: ABS IC50 for PfPI4K cKD, N=1, no aTc, experiment N=1, no aTc (PI4K knockdown), 72 hours); 0.029 µM in data set [5] (Plasmodium falciparum, 72 h, read-out: ABS IC50 for PfPI4K cKD, N=2, +aTc, experiment N=2, +aTc (500 nM, control conditions), 72 hours); 0.00431 µM in data set [5] (Plasmodium falciparum, 72 h, read-out: ABS IC50 for PfPI4K cKD, N=2, no aTc, experiment N=2, no aTc (PI4K knockdown), 72 hours); 0.025 µM in data set [5] (Plasmodium falciparum, 72 h, read-out: ABS IC50 for PfPI4K cKD, N=3, +aTc, experiment N=3, +aTc (500 nM, control conditions), 72 hours). In addition, the IC50 amounted to 0.00348 µM in data set [5] (Plasmodium falciparum, 72 h, read-out: ABS IC50 for PfPI4K cKD, N=3, no aTc, experiment N=3, no aTc (PI4K knockdown), 72 hours); 0.026 ± 0.003 µM in data set [5] (Plasmodium falciparum, read-out: ABS IC50 for PfPI4K cKD, Mean + SD, +aTc, mean of N=3, +aTc (control conditions)); 0.0037 ± 0.0004 µM in data set [5] (Plasmodium falciparum, read-out: ABS IC50 for PfPI4K cKD, Mean + SD, no aTc, mean of N=3, no aTc (PI4K knockdown)); 0.027 µM in data set [5] (read-out: ABS IC50 for PfPI4K cKD, N=1, +aTc, experiment N=1, +aTc (500 nM, control conditions), 72 hours); 0.021 µM in data set [5] (read-out: ABS IC50 for PfPI4K cKD, N=2, +aTc, experiment N=2, +aTc (500 nM, control conditions), 72 hours); 0.00339 µM in data set [5] (read-out: ABS IC50 for PfPI4K cKD, N=2, no aTc, experiment N=2, no aTc (PI4K knockdown), 72 hours). Further, the IC50 stood at 0.023 µM in data set [5] (read-out: ABS IC50 for PfPI4K cKD, N=3, +aTc, experiment N=3, +aTc (500 nM, control conditions), 72 hours) and 0.00331 µM in data set [5] (read-out: ABS IC50 for PfPI4K cKD, N=3, no aTc, experiment N=3, no aTc (PI4K knockdown), 72 hours).
As for `CNC(=O)c1ccc(-c2ccc3nccc(NC4CCN(C)CC4)c3n2)cn1` [Compound 33, N-Methyl-5-[8-[(1-methylpiperidin-4-yl)amino]-1,5-naphthyridin-2-yl]pyridine-2-carboxamide], the half-inhibitory concentration (IC50) is 0.077 ± 0.048 µM on PvPI4K; above 6 µM in data set [4] (setting [7]); 25 µM in data set [1] (Cricetulus griseus, CHO); 0.4 ± 0.001 µM in data set [2] (setting [6]); 131 ± 6 µM in the data set with β-hematin (βH) formation (setting [8]).
`FC(F)(F)c1ccc(-c2ccc3nccc(N[C@H]4CCNC4)c3n2)cn1` [Compound 15, N-[(3S)-Pyrrolidin-3-yl]-6-[6-(trifluoromethyl)pyridin-3-yl]-1,5-naphthyridin-4-amine]: the 50% inhibitory concentration (IC50) on PvPI4K was 0.164 ± 0.069 µM; in data set [1] (Cricetulus griseus, CHO), 46 µM; in data set [2] (setting [6]), 0.07 ± 0.013 µM. In data set [3], the concentration in solution (solubility at 20 h) came to 200 µM (≈ 71.9 µg/mL).
Turning to `CCN(CC)CCCC(C)Nc1ccnc2cc(Cl)ccc12` (centres unmarked) [Chloroquine, reference compound], the IC50 with β-hematin (βH) formation stood at 21 ± 2.1 µM.
Regarding `CC1CNCCC1Nc1ccnc2ccc(-c3ccc(C(F)(F)F)nc3)nc12` (centres unmarked) [Compound 24, N-(3-Methylpiperidin-4-yl)-6-[6-(trifluoromethyl)pyridin-3-yl]-1,5-naphthyridin-4-amine], the concentration for half-maximal inhibition (IC50) at PvPI4K turned out to be 0.131 ± 0.089 µM; in data set [4] (setting [7]), 0.104 ± 0.009 µM; in data set [1] (Cricetulus griseus, CHO), 47 µM; in data set [2] (setting [6]), 0.05 ± 0.025 µM. The same compound gave a solubility at 20 h in data set [3] of 195 µM (≈ 75.5 µg/mL).
In the same order, the values of `CN1CCC(Nc2ccnc3ccc(-c4cccnc4)nc23)CC1` [Compound 29, N-(1-Methylpiperidin-4-yl)-6-pyridin-3-yl-1,5-naphthyridin-4-amine] are 0.064 ± 0.014 µM, 1.28 ± 0.148 µM, above 50 µM, 0.526 ± 0.047 µM and 195 µM (≈ 62.3 µg/mL).
Turning to `CC(=O)N[C@@H]1CCN(c2ccnc3ccc(-c4cccc(S(C)(=O)=O)c4)nc23)C1` [Compound 10, N-[(3R)-1-[6-(3-Methylsulfonylphenyl)-1,5-naphthyridin-4-yl]pyrrolidin-3-yl]acetamide], the IC50 on PvPI4K amounted to 0.076 ± 0.006 µM; in data set [2] (setting [6]) it was 0.89 ± 0.057 µM. Besides, the concentration in solution in data set [3] (solubility at 20 h) came to 185 µM (≈ 75.9 µg/mL).

The values are drawn from PMC11247499, “2,8-Disubstituted-1,5-naphthyridines as Dual Inhibitors of Plasmodium falciparum Phosphatidylinositol-4-kinase and Hemozoin Formation with In Vivo Efficacy” (Journal of Medicinal Chemistry, 2024).
